The source of these data is patent publication US10851067B2, “Kv7 channel activators compositions and methods of use” (Knopp Biosciences LLC, priority 2018, dated 2020).

For the first assay, the target named is T1, Kv7.2/7.3 (Homo sapiens, UniProt O43525+O43526). Description: Kv7.2/7.3 FluxOR Potassium Ion Channel Assay (Invitrogen, F20015). It is filed as cell-based.
Conditions: not given
`CCOC(=O)Nc1ccc(NCc2ccc(F)cc2)cc1N` [ezogabine] gave an EC50 of 1100 nM.

In the next assay the target is T1, Kv7.2/7.3. Description: Kv7.2/7.3 Thallium Flux Assay. In kind it is cell-based. Further details: host or cells: HEK cells, tetracycline-inducible expression. The note with it: read-out: Kv7.2/7.3 Activity: EC50 of Kv7.2/Kv7.3 activation. In a few lines:
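Tetracycline-induced (10 ng/mL) hKv7.2/7.3 cell line tested over eight concentrations, 0.014–30 μM, in 0.1% DMSO extracellular solution; FluxOR II thallium-sensitive dye read at Ex 475/Em 530 nm. After 15 sec baseline, thallium/potassium stimulus injected, endpoint at 90 sec; responses normalized to retigabine ([…] max), Hill fit gave EC50 and maximal response.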
In the case of `[2H]C([2H])([2H])C(CC(=O)Nc1nc2c(F)cc(C#N)cc2n1C1(C)CCC1)(C([2H])([2H])[2H])C([2H])([2H])[2H]` [Example 521, N-(6-cyano-4-fluoro-1-(1-methylcyclobutyl)-1H-benzo[d]imidazol-2-yl)-3,3-bis(methyl-d3)butanamide], the EC50 was less than 1000 nM.
As for `CC1(n2c(NC(=O)CC3CC(F)(F)C3(F)F)nc3cc(F)c(F)cc32)CCC1` (single isomer, unassigned) [Example 499, N-(5,6-difluoro-1-(1-methylcyclobutyl)-1H-benzo[d]imidazol-2-yl)-2-(2,2,3,3-tetrafluorocyclobutyl)acetamide], the EC50 is less than 1000 nM.
As to `CC(C)(CC(=O)Nc1nc2ccc(C#N)cc2n1C1CCC1)c1ccccn1` [Example 518, N-(6-cyano-1-cyclobutyl-1H-benzo[d]imidazol-2-yl)-3-methyl-3-(pyridin-2-yl)butanamide], the EC50 was 1000 to 3000 nM.
`COc1cc(C#N)cc2c1nc(NC(=O)CC1CC(F)(F)C1(F)F)n2C(C)(C)C` (stereo not shown) [Example 514, N-(1-(tert-butyl)-6-cyano-4-methoxy-1H-benzo[d]imidazol-2-yl)-2-(2,2,3,3-tetrafluorocyclobutyl)acetamide]: the EC50 was less than 1000 nM.
For the molecule `CC1(n2c(NC(=O)CC(C)(C)C(F)(F)F)nc3c(F)cc(C#N)cc32)CCC1` [Example 486, N-(6-cyano-4-fluoro-1-(1-methylcyclobutyl)-1H-benzo[d]imidazol-2-yl)-4,4,4-trifluoro-3,3-dimethylbutanamide], the EC50 is less than 1000 nM.
As for `CC1(n2c(NC(=O)CC3CC(F)(F)C3(F)F)nc3ccc(F)c(C#N)c32)CCC1` (single isomer, unassigned) [Example 537, N-(7-cyano-6-fluoro-1-(1-methylcyclobutyl)-1H-benzo[d]imidazol-2-yl)-2-(2,2,3,3-tetrafluorocyclobutyl)acetamide], the EC50 is less than 1000 nM.
On to `CC1(n2c(NC(=O)CC3CC(F)(F)C3(F)F)nc3cc(F)c(Cl)cc32)CCC1` (single isomer, unassigned) [Example 539, N-(6-chloro-5-fluoro-1-(1-methylcyclobutyl)-1H-benzo[d]imidazol-2-yl)-2-(2,2,3,3-tetrafluorocyclobutyl)acetamide], for which the EC50 is less than 1000 nM.
On to `COc1cc(C#N)cc2c1nc(NC(=O)CC1CC(F)(F)C1(F)F)n2C1(C)CCC1` (single isomer, unassigned) [Example 553, N-(6-cyano-4-methoxy-1-(1-methylcyclobutyl)-1H-benzo[d]imidazol-2-yl)-2-(2,2,3,3-tetrafluorocyclobutyl)acetamide], for which the EC50 is less than 1000 nM.
For `CC1(n2c(NC(=O)CC3CC(F)(F)C3(F)F)nc3c(F)cc(C#N)c(F)c32)CCC1` (single isomer, unassigned) [Example 504, N-(6-cyano-4,7-difluoro-1-(1-methylcyclobutyl)-1H-benzo[d]imidazol-2-yl)-2-(2,2,3,3-tetrafluorocyclobutyl)acetamide], the EC50 is less than 1000 nM.
The same measure, in the same setting: the value for `CC(C)(C)CC(=O)Nc1nc2ccc(C3(O)CCC3)c(OC(F)(F)F)c2n1C1CCC1` [Example 487, N-(1-cyclobutyl-6-(1-hydroxycyclobutyl)-7-(trifluoromethoxy)-1H-benzo[d]imidazol-2-yl)-3,3-dimethylbutanamide] was less than 1000 nM; that for `CC1(n2c(NC(=O)CC3CC(F)(F)C3(F)F)nc3cc(F)cc(C#N)c32)CCC1` (single isomer, unassigned) [Example 545, N-(7-cyano-5-fluoro-1-(1-methylcyclobutyl)-1H-benzo[d]imidazol-2-yl)-2-(2,2,3,3-tetrafluorocyclobutyl)acetamide] was less than 1000 nM; that for `CC(C(=O)Nc1nc2c(F)cc(C(C)(C)O)cc2n1C1CCC1)C1(C(F)(F)F)CC1` (single isomer, unassigned) [Example 508, N-(1-cyclobutyl-4-fluoro-6-(2-hydroxypropan-2-yl)-1H-benzo[d]imidazol-2-yl)-2-(1-(trifluoromethyl)cyclopropyl)propanamide] was 1000 to 3000 nM.
On to `CC1(n2c(NC(=O)CC3CC(F)(F)C3(F)F)nc3c(F)cc(C#N)cc32)CCC1` (single isomer, unassigned) [Example 512, N-(6-cyano-4-fluoro-1-(1-methylcyclobutyl)-1H-benzo[d]imidazol-2-yl)-2-(2,2,3,3-tetrafluorocyclobutyl)acetamide], for which the EC50 is less than 1000 nM.
`CC(C)(C)CC(=O)Nc1nc2c(F)cc(C#N)c(F)c2n1C1(C)CCC1` [Example 517, N-(6-cyano-4,7-difluoro-1-(1-methylcyclobutyl)-1H-benzo[d]imidazol-2-yl)-3,3-dimethylbutanamide]: the EC50 was less than 1000 nM.
With `CC(C)(C)n1c(NC(=O)CC2CC(F)(F)C2(F)F)nc2cc(F)c(Cl)cc21` (single isomer, unassigned) [Example 535, N-(1-(tert-butyl)-6-chloro-5-fluoro-1H-benzo[d]imidazol-2-yl)-2-(2,2,3,3-tetrafluorocyclobutyl)acetamide], the EC50 is less than 1000 nM.
In the case of `CC(C)(C)CC(=O)Nc1nc2ccc(F)c(Br)c2n1C1(C)CCC1` [Example 550, N-(7-bromo-6-fluoro-1-(1-methylcyclobutyl)-1H-benzo[d]imidazol-2-yl)-3,3-dimethylbutanamide], the EC50 was less than 1000 nM.
As to `CC1(n2c(NC(=O)CC(C)(C)C(F)(F)F)nc3ccc(Cl)c(F)c32)CCC1` [Example 555, N-(6-chloro-7-fluoro-1-(1-methylcyclobutyl)-1H-benzo[d]imidazol-2-yl)-4,4,4-trifluoro-3,3-dimethylbutanamide], the EC50 was less than 1000 nM.
Take `COc1cc(C#N)cc2c1nc(NC(=O)C13CCC(C1)C3)n2C(C)(C)C` [Example 510, N-(1-(tert-butyl)-6-cyano-4-methoxy-1H-benzo[d]imidazol-2-yl)bicyclo[2.1.1]hexane-1-carboxamide]: the EC50 is 1000 to 3000 nM.
Turning to `CC(C(=O)Nc1nc2ccc(C(C)(C)O)cc2n1C1(C)CCC1)C1(C(F)(F)F)CC1` (single isomer, unassigned) [Example 489, N-(6-(2-hydroxypropan-2-yl)-1-(1-methylcyclobutyl)-1H-benzo[d]imidazol-2-yl)-2-(1-(trifluoromethyl)cyclopropyl) propanamide], the EC50 was less than 1000 nM.
As to `CC(C)(C)n1c(NC(=O)CC2CC(F)(F)C2(F)F)nc2cc(F)ccc21` (single isomer, unassigned) [Example 528, N-(1-(tert-butyl)-5-fluoro-1H-benzo[d]imidazol-2-yl)-2-(2,2,3,3-tetrafluorocyclobutyl)acetamide], the EC50 is less than 1000 nM.
`CC(C)(CC(=O)Nc1nc2cc(F)cc(C#N)c2n1C1(C)CCC1)C1CC1` [Example 547, N-(7-cyano-5-fluoro-1-(1-methylcyclobutyl)-1H-benzo[d]imidazol-2-yl)-3-cyclopropyl-3-methylbutanamide]: the EC50 is less than 1000 nM.
As for `CC1(n2c(NC(=O)CC3CC(F)(F)C3(F)F)nc3ccc(F)c(F)c32)CCC1` (single isomer, unassigned) [Example 513, N-(6,7-difluoro-1-(1-methylcyclobutyl)-1H-benzo[d]imidazol-2-yl)-2-(2,2,3,3-tetrafluorocyclobutyl)acetamide], the EC50 is less than 1000 nM.
For the molecule `CC1(n2c(NC(=O)CC3(C(F)(F)F)CC3)nc3cc(F)c(F)c(F)c32)CCC1` [Example 534, N-(5,6,7-trifluoro-1-(1-methylcyclobutyl)-1H-benzo[d]imidazol-2-yl)-2-(1-(trifluoromethyl)cyclopropyl)acetamide], the EC50 was less than 1000 nM.
Turning to `CC(C)(C)n1c(NC(=O)CC2CC(F)(F)C2(F)F)nc2c(F)cc(F)cc21` (single isomer, unassigned) [Example 560, N-(1-(tert-butyl)-4,6-difluoro-1H-benzo[d]imidazol-2-yl)-2-(2,2,3,3-tetrafluorocyclobutyl)acetamide], the EC50 is less than 1000 nM.
For `CC(C)(C)n1c(NC(=O)CC2CC(F)(F)C2(F)F)nc2ccc(F)c(F)c21` (single isomer, unassigned) [Example 509, N-(1-(tert-butyl)-6,7-difluoro-1H-benzo[d]imidazol-2-yl)-2-(2,2,3,3-tetrafluorocyclobutyl)acetamide], the EC50 is less than 1000 nM.
Regarding `CC(C)(C)n1c(NC(=O)CC2CC(F)(F)C2(F)F)nc2cc(F)c(F)cc21` (single isomer, unassigned) [Example 558, N-(1-(tert-butyl)-5,6-difluoro-1H-benzo[d]imidazol-2-yl)-2-(2,2,3,3-tetrafluorocyclobutyl)acetamide], the EC50 is 1000 to 3000 nM.
Take `CC1(n2c(NC(=O)CC3CC(F)(F)C3(F)F)nc3cc(F)cc(F)c32)CCC1` (single isomer, unassigned) [Example 523, N-(5,7-difluoro-1-(1-methylcyclobutyl)-1H-benzo[d]imidazol-2-yl)-2-(2,2,3,3-tetrafluorocyclobutyl)acetamide]: the EC50 was less than 1000 nM.
